pIC50: −log10 of the molar value. Activity calls are given as the source filed them.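 Rule for the calls: active = maximal percent inhibition of the deubiquitinase OTUD3 of at least 30% across the tested doses; inactive = the rest.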

The target in the assay is OTU domain-containing protein 3 (Homo sapiens) (UniProt Q5T2D3). The assay can be described thus: Validation of screening hits, potency titration, in vitro enzymatic, OTU domain-containing protein 3 DUB inhibitors (AID 1645868). The settings on record: purified OTUD3, ubiquitin-rhodamine cleavage fluorescence, 2 h.
OTU domain-containing protein 3 (Homo sapiens), sequence (Q5T2D3 whole entry, looked up, the tested form may be a part): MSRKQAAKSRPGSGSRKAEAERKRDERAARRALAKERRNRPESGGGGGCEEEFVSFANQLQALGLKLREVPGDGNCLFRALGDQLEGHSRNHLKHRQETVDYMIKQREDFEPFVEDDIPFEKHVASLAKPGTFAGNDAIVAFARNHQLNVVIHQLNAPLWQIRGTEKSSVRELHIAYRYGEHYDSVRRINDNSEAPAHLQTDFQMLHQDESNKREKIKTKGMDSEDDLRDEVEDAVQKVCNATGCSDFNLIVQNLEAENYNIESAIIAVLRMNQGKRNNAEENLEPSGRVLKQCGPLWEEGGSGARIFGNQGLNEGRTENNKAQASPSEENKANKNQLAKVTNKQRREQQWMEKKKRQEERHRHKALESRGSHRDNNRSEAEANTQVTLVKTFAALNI
For `CC(=O)O[C@H]1[C@]2(O)C[C@]34SS[C@](CO)(C(=O)N3[C@@H]2C[C@@]12O[C@@H](C)C(C)(C)C2=O)N(C)C4=O`, the IC50 is > 50 µM (inactive).

`Cc1ccc2c(c1)c(=O)c(C(=O)c1ccc(F)cc1)cn2CC(=O)Nc1ccc2c(c1)OCCO2`: the IC50 was > 50 µM (inactive).

`COc1ccccc1NC(=O)c1nn(-c2cccc(F)c2)c(OC)cc1=O`: the IC50 is > 50 µM (inactive).

As to `Fc1ccc(-c2noc(-c3nnc(NCc4cccnc4)c4ccccc34)n2)cc1`, the IC50 is > 50 µM (inactive).

As for `Cc1ccc(C2=Nc3ccccc3N(CC(=O)Nc3cccc(C)c3C)C(=O)C2)cc1C`, the IC50 is > 50 µM (inactive).

On to `CC(C)c1cc(NCc2ccccc2)n2nc(-c3cccnc3)nc2n1`, for which the pIC50 was 4.60.

`COc1cc(NC(=O)c2ccc3c(c2)OCO3)ccc1-c1cc2ccccc2oc1=O`: the IC50 was > 50 µM (inactive).

`O=C1N(Cc2ccc(F)cc2)CCN1c1ccc(C(F)(F)F)cn1`: the IC50 is > 50 µM (inactive).

For the compound `Cc1ccc(-n2c(-c3ccccc3)cn3c4c(=O)[nH]c(=O)n(C)c4nc23)cc1C`, the pIC50 was 5.70.

Regarding `CC(C(=O)NCc1ccc2c(c1)OCO2)N1CCN(c2ccc(O)cc2)CC1` (stereo not given), the IC50 was > 50 µM (inactive).

Take `CCCC(=O)Nc1ccc(SCc2nnc(-c3ccccc3)o2)cc1`: the IC50 was > 50 µM (inactive).

As to `CCC(C)Oc1cccc(C(=O)Nc2ccc(CN3CCOCC3)cc2)c1` (stereo not given), the IC50 was > 50 µM (inactive).

Take `CC(=O)Nc1ccc(S(=O)(=O)NCc2ccc(C(=O)NCCc3ccc(Cl)cc3)cc2)cc1`: the pIC50 was 4.93.

As to `Cc1nc2sc(C(=O)Nc3ccccc3Br)c(N)c2c(C)c1C`, the pIC50 was 4.81.

Consider `CC1OC2CC(O)C1(O)C1=C2C(O)=C(C(N)=O)C(=N)C1=O` (stereo not given), for which the IC50 is > 50 µM (inactive).

Consider `COc1ncccc1CN1CCn2c(Cn3cccn3)cnc2C1C` (stereo not given), for which the IC50 is > 50 µM (inactive).

`CCOc1ccccc1NC(=O)Cn1ccn2nc(-c3ccc(OC)cc3)cc2c1=O`: the IC50 was > 50 µM (inactive).

For the compound `COc1ccccc1/C=C/C(=O)Nc1nc2n(n1)C(c1ccc(Cl)cc1)CC(=O)N2` (stereo not given), the IC50 was > 50 µM (inactive).

As to `Cc1cccc(C(=O)NCc2nc3ccccc3n2Cc2ccccc2C)c1`, the IC50 was > 50 µM (inactive).

Consider `COc1ccc(NC(=O)c2nnn(-c3ccccc3C)c2C)cc1OC`, for which the IC50 was > 50 µM (inactive).

Regarding `CCOc1ccc2c(c1)c(=O)c(C(=O)c1ccc(C)cc1)cn2CC(=O)Nc1ccc(OC)c(OC)c1`, the pIC50 was 5.70.

In the case of `COc1ccc(OC)c(-n2c(SCC(=O)N3CCc4ccccc43)nnc2-c2cccc(S(=O)(=O)N(C)C)c2)c1`, the IC50 was > 50 µM (inactive).

Regarding `Cc1sc2ncnc(OCc3ccc(F)cc3Cl)c2c1C`, the IC50 was > 50 µM (inactive).

As to `O=C(CNc1ccc(F)c(Cl)c1)Nc1ccc2c(c1)OCCO2`, the IC50 was > 50 µM (inactive).

For the compound `Cc1cc(=O)oc2cc(OCC(=O)Nc3cc(Cl)ccc3N3CCOCC3)ccc12`, the IC50 was > 50 µM (inactive).

In the case of `N#Cc1ccccc1Cn1c(=O)n(CCCCC(=O)NCCc2ccccc2)c(=O)c2ccccc21`, the pIC50 is 4.63.

In the case of `NS(=O)(=O)c1cc(C(=O)OCC(=O)c2ccc3c(c2)OCCO3)ccc1Cl`, the IC50 was > 50 µM (inactive).

`Nc1ccc(F)c(NS(=O)(=O)c2ccccc2)c1`: the IC50 is > 50 µM (inactive).

Turning to `Cc1cc(O)cc2cc3c(c(O)c12)C(=O)CCC3O` (stereo not given), the IC50 was > 50 µM (inactive).

Turning to `Cc1ccc(C)c(NC(=O)CSc2nnc(-c3ccccn3)n2Cc2ccco2)c1`, the IC50 was > 50 µM (inactive).

On to `COc1ccc(OC)c(NC(=O)CS(=O)(=O)c2cn(CC(=O)N3CCC(C)CC3)c3ccccc23)c1`, for which the pIC50 was 4.47.

On to `NC(=O)c1nnn(-c2ccc(NC(=O)c3ccc(F)c(F)c3)cc2)n1`, for which the pIC50 is 4.69.

With `CNC(=O)c1cc2nc(N(C)C)n(-c3ccc(F)cc3)c2s1`, the IC50 is > 50 µM (inactive).

Regarding `CC(C)(C)c1ccc(C(=O)Nc2ccc(Oc3cccnc3)nc2)cc1`, the IC50 was > 50 µM (inactive).

As for `Nc1nc(OCc2ccccc2)c2[nH]c(/C=C/c3cccs3)nc2n1`, the pIC50 is 4.54.

On to `CCN(C(=O)c1cc2c(s1)-c1ccccc1OC2)c1ccccc1F`, for which the IC50 is > 50 µM (inactive).

Take `O=c1ccc(-c2noc(-c3ccc4cc[nH]c4c3)n2)c[nH]1`: the IC50 is > 50 µM (inactive).

Take `CC1(C)CC(=O)C2=C(C1)Nc1ccccc1N(C(=O)C(F)(F)F)C2c1cccs1` (stereo not given): the IC50 was > 50 µM (inactive).

For the compound `COCCCn1c(C(=O)NCCc2ccccc2)cc2c(=O)n3cccc(C)c3nc21`, the IC50 was > 50 µM (inactive).

Take `Cc1cc(C)c2cc(C(=O)NC3CCN(Cc4ccccc4)CC3)[nH]c2c1`: the pIC50 is 4.49.

`COc1cc(N)c(Cl)cc1C(=O)OCC(=O)c1ccc2c(c1)OCCO2`: the IC50 was > 50 µM (inactive).

For `COc1ccc(NCc2nc3ccccc3n2Cc2ccccc2)cc1`, the IC50 was > 50 µM (inactive).

On to `CC1OC1C(=O)[C@]1(O)[C@H](C)[C@@H](O)[C@@]23O[C@@]2([C@H](O)c2c(O)cccc2C3=O)[C@H]1O` (stereo not given in full), for which the IC50 was > 50 µM (inactive).

`Cc1cc(C(=O)Nc2ccc3nc(N4CCN(c5ncccn5)CC4)cc(C)c3c2)ccc1[N+](=O)[O-]`: the IC50 was > 50 µM (inactive).

Take `COc1ccccc1CNC(=O)Nc1cccc2ccccc12`: the pIC50 was 4.35.

For `CCC(=O)Nc1ccc(-c2nc(Cn3cc(C)cn3)c(C)o2)cc1`, the IC50 is > 50 µM (inactive).

Take `Cc1ccc(CN2C(=O)c3cc4ccccc4n3CC2(C)C(=O)NCc2ccccc2)o1` (stereo not given): the IC50 is > 50 µM (inactive).

`Cc1nc(NCc2ccccn2)c2cc(-c3ccccc3)sc2n1`: the pIC50 was 4.34.

On to `CC(C)N1CC[C@@H]2[C@H](C1)CN2C(=O)Nc1cccc(F)c1`, for which the IC50 was > 50 µM (inactive).

With `CCOc1ccc(-c2cc3nc(C4CCN(C(=O)OC(C)(C)C)CC4)c(C(=O)Nc4cc(F)ccc4F)cn3n2)cc1`, the IC50 was > 50 µM (inactive).

On to `O=C(Cn1c(=O)n(Cc2ccc(F)cc2)c(=O)c2ncccc21)Nc1ccccc1`, for which the IC50 was > 50 µM (inactive).

Consider `CC1CCc2c(sc3ncnc(OCc4cccc([N+](=O)[O-])c4)c23)C1` (stereo not given), for which the IC50 was > 50 µM (inactive).

As to `COc1ccccc1NC(=O)c1cc(-c2ccccn2)nc2ccccc12`, the pIC50 is 4.41.

On to `COc1ccccc1NC(=O)Cn1cc(C(=O)c2ccc(C)cc2)c(=O)c2cc(Cl)ccc21`, for which the pIC50 was 4.62.

For `Nc1ncnc2c1ncn2[C@@H]1O[C@H](CO)C[C@@H]1O`, the pIC50 was 4.48.

Take `O=C(Cn1c(=O)n(Cc2ccco2)c(=O)c2ccc(C(=O)NC3CCCC3)cc21)NCc1ccco1`: the IC50 is > 50 µM (inactive).

For the compound `COc1ccccc1NS(=O)(=O)c1cccc(NC(=O)CCc2nc3ccccc3s2)c1`, the IC50 was > 50 µM (inactive).

`O=C(Nc1cccc(-c2noc(C3CCC3)n2)c1)C1CC(=O)N(c2ccccc2)C1` (stereo not given): the pIC50 was 4.43.

Regarding `CC(C)N1CC2CN(Cc3ccc(Cl)cc3)CCN2Cc2ccccc21` (stereo not given), the IC50 is > 50 µM (inactive).

As for `O=C(c1nnn(Cc2ccc(Cl)cc2)c1-n1cccc1)N1CCCC1`, the IC50 was > 50 µM (inactive).

For the compound `Cc1ccc(Cn2nnc(-c3noc(-c4ccc[nH]4)n3)c2C)cc1`, the IC50 is > 50 µM (inactive).

As to `CCn1cc(NC(=O)CN2CCC3(CC=CCOC3)CC2)c(C)n1`, the IC50 is > 50 µM (inactive).

Take `COCCNC(=O)c1ccc(-c2ccc(N3CCCCC3)nc2)cc1`: the pIC50 was 4.60.

Consider `COc1ccccc1C(=O)N1CCc2[nH]c3ccc(F)cc3c2C1`, for which the IC50 was > 50 µM (inactive).

In the case of `O=C(CCC1CCCCC1)Nc1ccccc1C(=O)N1CCOCC1`, the IC50 was > 50 µM (inactive).

Turning to `COc1ccc(S(=O)(=O)Nc2ccc(Nc3ccc(-n4cccn4)nn3)cc2)cc1`, the IC50 is > 50 µM (inactive).

In the case of `Cn1c(=O)c2c(nc3n(-c4ccccc4F)c(-c4ccccc4)cn23)n(C)c1=O`, the IC50 is > 50 µM (inactive).

As to `CCOc1ccccc1NC(=O)COC(=O)C(c1ccccc1)c1ccccc1`, the IC50 is > 50 µM (inactive).

For the compound `Cc1ccccc1NC(=O)Cn1cncc(-c2nc(-c3ccccc3)cs2)c1=O`, the IC50 is > 50 µM (inactive).

Regarding `Fc1ccccc1N1CCN(c2ncc3c(n2)CCN(Cc2ccccn2)C3)CC1`, the IC50 was > 50 µM (inactive).

As to `Cc1ccc(-c2nc(-c3cccs3)cc(C(F)(F)F)c2C#N)cc1`, the IC50 is > 50 µM (inactive).

With `CS(=O)(=O)N1CCCc2cc(C(=O)Nc3ccc4c(c3)OCO4)ccc21`, the IC50 was > 50 µM (inactive).

Consider `CN1CC2CN(C(=O)c3ccc(F)cc3)CCN2Cc2ccccc21` (stereo not given), for which the IC50 was > 50 µM (inactive).

Take `CN(C)c1ccc(/C=N/NC(=O)c2ccc(Cl)cc2)cc1`: the pIC50 is 4.62.

With `O=C(O)C1CCN(Cc2c(-c3ccco3)nc3ccc(Cl)cn23)CC1`, the IC50 was > 50 µM (inactive).

As to `COc1ccc(C(=O)Nc2sc3c(c2C(=O)NCc2cccnc2)CCCC3)cc1`, the IC50 was > 50 µM (inactive).

For `O=C(Nc1oc2ccccc2c(=O)c1-c1ccc2c(c1)OCO2)C1CCCCC1`, the IC50 is > 50 µM (inactive).

In the case of `CCN(CC)C(=O)CN1CCCC(c2ncncc2-c2cc(C)no2)C1` (stereo not given), the IC50 was > 50 µM (inactive).

On to `CC(C)c1cc2c(c(O)c1O)[C@@]13CCCC(C)(C)[C@@H]1C[C@@H]2OC3=O`, for which the pIC50 is 4.55.

For the compound `CC1Oc2cc3c(-c4c(O)cc(O)c5c(O)c6c(cc45)OC(C)C(C)C6=O)c(O)cc(O)c3c(O)c2C(=O)C1C` (stereo not given), the pIC50 is 5.61.

Regarding `O=C(NCc1ccccc1Cl)c1ccc2cn[nH]c2c1`, the IC50 was > 50 µM (inactive).

`CCN(CC)c1cc(C)c2cc(NC(=O)c3ccncc3)ccc2n1`: the IC50 was > 50 µM (inactive).

For the compound `O=c1ccc(-c2noc(Cc3c(F)cccc3Cl)n2)c[nH]1`, the IC50 was > 50 µM (inactive).

Consider `Cc1ccc2c(c1)N(C)C(=O)c1cc(NC(=O)c3ccc(F)cc3)ccc1O2`, for which the pIC50 was 4.65.

`CCOC(=O)c1ccc(S(=O)(=O)N2CCC(C(=O)OC(C)C(=O)Nc3cccc([N+](=O)[O-])c3)CC2)cc1` (stereo not given): the pIC50 is 4.76.

Usually IC50 stands for the concentration that inhibits the measured activity by half. Usually pIC50 stands for −log10 of the IC50, conventionally taken in molar units.

The record behind these values is PubChem BioAssay AID1645868 (Buhrlage Lab, Dana-Farber Cancer Institute and Novartis …, 2021).
